Common to all, as to assay type: cell-based
Test [1] has as its system Salmonella enterica isolated from layer feed. As to the kind of experiment: Preliminary in vitro feed assay, Salmonella count in contaminated feed over 21 days. The conditions noted are these: 15 kg/ton. How it is done: (§1) Preparation of the treatment. Perpropionic acid, peracetic acid, mixture of peroctanoic acid and perdecanoic acid (PC8/PC10) and Sal CURB products were used without any further dilution or mixing. The peroxy mix was prepared by mixing peracetic and perpropionic acid in 1:1 weight ratio. Briefly, 1.0 g of peroxy mix was prepared by weighing 0.5 g of peracetic acid into 0.5 g of perpropionic acid. The mixture was mixed well prior to usage. Similar procedure was followed in the preparation of 3% sulphuric acid (where […] of water) and peroxy mix with ester (where 0.9 g of peroxy mix (prepared with peracetic and propionic acid) was mixed with 0.1 g of propylene glycol propionate esters). […] Briefly, 1 mL of 75% phosphoric acid was added to 10 mL of Pro-Oxine solution and mixed well. The mixture is covered and let to stand for 10 mins prior to usage.
(§2) Preparation of stock feed inoculum. The researchers prepared contaminated feed from known methods, where Salmonella enterica isolated from layer feed was revived from the glycerol stock by plating a loopful of culture onto the TSAYE (i.e., tryptone soya agar supplemented with 0.6% yeast extract (CM0131B; Oxoid) prepared as per recommended) and incubate for 18-24 hours at 37° C. Following which, the colonies were collected aseptically with saline solution (i.e., 0.9% sodium chloride (V800372; Sigma-Aldrich) prepared in deionized water), yielding approximately 5 mL of biomass suspension. The biomass suspension was diluted accordingly to meet the contamination level required for the stock inoculum. No dilution was required for high contamination level of ca. 10^7 cfu/g whereas biomass suspension was diluted 1000 times to achieve lower contamination level of ca. 10^4 cfu/g in the stock inoculum. The stock feed inoculum was prepared by adding the biomass suspension (5 mL) into 100 g of sterile feed (made up with 7:3 ground corn and soybean, autoclaved at 121° C. for one hour and dried for 24 hours at 65° C.) with a syringe and needle, and homogenously mixed after. The stock feed inoculum was stored at 25° C. for a week. Salmonella count of the stock inoculum was determined using conventional plating method with XLD agar (i.e., Xylose lysine deoxycholate (CM0469B; Oxoid)) and BPW (i.e., buffered peptone water (CM0509B; Oxoid)) prior to usage. Briefly, three grams of stock feed inoculum was weighed into a 50 mL conical tube, diluted with 27 mL of BPW, homogenously mixed and left to stand for 30 minutes. The feed suspension was then serial diluted to the appropriate dilutions. An aliquot of 0.1 mL of the feed suspension was plated onto the agar at each dilution and incubated at 37° C. for 18-24 hours prior to enumeration. Plating was carried out in triplicates. Blank stock feed was prepared by adding 5 mL of saline into 100 g of sterile feed.
(§3) Preparation of the feed inoculum. The stock feed inoculum was diluted approximately 100 times with sterile feed where three grams of stock inoculum was added into 307 g of sterile feed and kept at 37° C. for 24 hours. The Salmonella count of the feed was determined prior to treatment. Briefly, 90 mL of BPW was added into 10 g of feed sample in a sterile bag (10^−1 dilution). The mixture was homogenously mixed with a stomacher at medium speed for three minutes and left to stand for 30 minutes. The feed supernatant was serial diluted to appropriate dilutions for plating. The plates were incubated at 37° C. for 18-24 hours prior to counting. If low Salmonella count was expected, the sample size was increased to 1 mL by plating 300, 300 and 400 uL onto three plates in triplicates for […] detection limit (10 cfu/g). Blank feed was prepared by adding three grams of blank stock feed into 307 g of sterile feed. In addition, an extra contaminated feed was prepared as a control.
(§4) Treatment of contaminated feed. […]

The test system of test [2] is Enterobacteriaceae. How it is done: Materials and Method. Naturally contaminated layer feed was collected, ground, and mixed well prior to weighing. The ground feed was weighed and separated into 15 different bags, each containing 300 g. The product/prototype was accurately weighed at the needed dosage and adjusted to a total volume of 5 mL prior to adding into the 300 g of feed with a syringe and needle. Product/prototype was added in batches (i.e., 2, 2, and 1 mL separately) and mixed after each addition. Five mL of sterile water was added into the feed and served as the control. The treated feed samples were homogenized after treatment and kept at 25° C. until the day of enumeration.
TEC of the 15 samples were studied over a period of 22 days with enumeration interval at time points 0, 1 and 22 days. The effect of peroxy acid was neutralized at each time point prior to enumeration. At each time point, 20 mL of 0.1 M sodium thiosulphate was added into 10 g of each treated feed sample in a sterile bag. The mixture was mixed well and left to stand for 10 minutes. After 10 minutes, 70 mL of BPW was added to achieve 10^−1 dilution. The feed suspension was homogenously mixed and left to stand for 30 minutes. Subsequently, the feed suspension was serial diluted to appropriate dilutions for enumeration. 100 uL of the diluted samples were plated onto Violet Red Bile Glucose (VRBG; CM0485 from Oxoid) agar, prepared as per recommended by the supplier. An aliquot of 0.1 mL of the feed suspension was plated onto the agar at each dilution and incubated at 37° C. for 18-24 hours prior to enumeration. Plating was carried out in triplicates. If low TEC is expected, the sample size is increased to 1 mL by plating 300, 300 and 400 uL onto three plates in triplicates for lower detection limit (10 CFU/g). The diluted feed samples (at 10^−1 dilution factor) were kept at 37° C. for 18-24 hours for enrichment prior to streaking. A loopful of diluted feed suspension was streaked onto the VRBG agar and incubated at 37° C. for 18-24 hours to determine qualitatively the presence of Enterobacteriaceae for samples with undetectable TEC.

Test [3] concerns Salmonella enterica isolated from layer feed. Nature of the test: In vitro feed assay, high Salmonella contamination level (~5 log cfu/g). The conditions noted are these: 10.0 kg/ton. On the procedure:
as §1, §2, §3, §4

Test [4] has as its system Escherichia coli ATCC 25922. As to the kind of experiment: Minimum inhibitory concentration (MIC), broth microdilution. Conditions: Escherichia coli. How it is done:
Materials and Methods. The assay was conducted to determine the minimum inhibitory concentration (MIC) of peroxy-acids against Escherichia coli ATCC 25922. E. coli was purchased from American Type Culture Collection (ATCC). The strain was stored at −80° C. in glycerol. Prior to usage, E. coli was revived by streaking a loopful of culture onto TSAYE (i.e., tryptone soya agar yeast extract (CM0131 and LP0021; Oxoid) prepared as per recommended by Oxoid) with overnight incubation at 37° C. An overnight culture of E. coli was diluted in TSBYE (i.e, tryptone soya broth yeast extract (CM0129; Oxoid) prepared as per recommended by Oxoid) to obtain a cell suspension of ca. 10^5 CFU/mL. Subsequently, 100 μL of the diluted culture was added to 100 μL of the test solutions at the needed concentrations into a microtiter plate (92096; TPP Techno Plastic Products AG). Peroxy-acids were tested at an active concentration of 25-1600 μg/mL. Subsequently, the inoculated plate was incubated at 37° C. up to 48 hours with the bacterial cell density recorded at optical density (OD) 600 nm at 24 hours interval using a microplate reader (Varioskan LUX; Thermo Fisher).
A general note: In broth dilution the organism is exposed to a series of concentrations in liquid medium.

Each structure is given as a SMILES string. In brackets after ≈: the same amount, converted by molar mass. Like-named read-outs stand apart in the source and are kept apart here.

Turning to `O=S(=O)(O)O` [3% w/w sulphuric acid, sulphuric acid], the Salmonella killing effect result in test [1] (over the 21 days) was “No Salmonella killing effect”. The Salmonella count in test [1] (post-treatment Day 1) came to 5.80 log cfu/g; in test [1] (post-treatment Day 6), 5.02 log cfu/g; in test [1] (post-treatment Day 21), 4.82 log cfu/g; in test [1] (pre-treatment Day 0), 5.59 log cfu/g.
As for `CC(=O)OO` [Peracetic acid, peracetic acid], the TEC in test [2] (2.5 kg/ton, post treatment Day 1) is less than 1.00 log CFU/g; in test [2] (2.5 kg/ton, post treatment Day 22), 3.32 log CFU/g; in test [2] (2.5 kg/ton, pre-treatment Day 0), 3.37 log CFU/g; in test [2] (5.0 kg/ton, post treatment Day 1), 2.39 log CFU/g; in test [2] (5.0 kg/ton, post treatment Day 22), less than 1.00 log CFU/g; in test [2] (5.0 kg/ton, pre-treatment Day 0), less than 2.00 log CFU/g. Further, the TEC in test [2] (10.0 kg/ton, post treatment Day 1) is recorded as 1.43 log CFU/g; in test [2] (10.0 kg/ton, post treatment Day 22), less than 1.00 log CFU/g; in test [2] (10.0 kg/ton, pre-treatment Day 0), 2.52 log CFU/g. Further, the Salmonella count in test [1] (pre-treatment Day 0) is 5.63 log cfu/g; in test [3] (post-treatment Day 1) it was 2.01 log cfu/g; in test [3] (post-treatment Day 2), “BD (Salmonella count is below detection limit (1 log cfu/g))”; in test [3] (post-treatment Day 3), “BD (Salmonella count is below detection limit (1 log cfu/g))”; in test [3] (post-treatment Day 6), 2.11 log cfu/g; in test [3] (post-treatment Day 14), “BD (Salmonella count is below detection limit (1 log cfu/g))”. Further, the Salmonella count in test [3] (post-treatment Day 21) is recorded as 1.12 log cfu/g; in test [3] (pre-treatment Day 0) it was 5.98 log cfu/g. The MIC turned out to be 300 µg/mL (≈ 3.94 mM) in test [4] (ATCC25922, preliminary results, read-out: MIC) and 300 µg/mL (≈ 3.94 mM) in test [4] (ATCC25922, no increment in OD over 48 hours, 37° C., read-out: Minimum inhibitory concentration (μg/mL) against E. coli).

Source of the values: patent US20250008983A1, “COMPOSITIONS CONTAINING PEROXYACIDS TO CONTROL PATHOGEN GROWTH IN ANIMAL FEED AND RELATED METHODS” (KEMIN INDUSTRIES, INC., priority 2023, published 2025).
